Test systems include U-251; MDA-MB-435; 786-0; SNB-75; A549; HL-60; OVCAR-4; COLO 205; SN12C; SF-295; DU-145; KM12; SK-MEL-5; Malme-3M; UO-31; OVCAR-5; PC-3; CCRF-CEM; HOP-92.
Holding throughout (test): growth of human tumour cells (NCI), 48 h

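Method: 48-hour compound exposure of cells in 96-well plates, five concentrations, linear interpolation of endpoints. GI50 is the concentration that inhibits growth by half.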 Activity calls are given as the source filed them. No stated cut-off is given here; in the data, active = GI50 up to about 1.1 µM and inactive = higher. Bounds are passed on as bounds.

As to `CCC1(CC)C(=O)N(C(=O)c2ccc(C)cc2)N(C(=O)c2ccc(C)cc2)C1=O`, the GI50 was 35 µM (inactive) in the assay with U-251; > 75 µM (inactive) with MDA-MB-435; > 75 µM (inactive) in the assay with 786-0; 14.4 µM (inactive) with SNB-75; > 75 µM (inactive) in the assay with A549; 28.4 µM (inactive) with HL-60. Moreover, the GI50 was > 75 µM (inactive) with OVCAR-4; > 75 µM (inactive) in the assay on COLO 205; 54.2 µM (inactive) with SN12C; 72.9 µM (inactive) in the assay on SF-295; > 75 µM (inactive) with DU-145; 50.9 µM (inactive) with KM12. Also, the GI50 in the assay on SK-MEL-5 was > 75 µM (inactive); in the assay with Malme-3M it was 14.4 µM (inactive); in the assay on UO-31, > 75 µM (inactive); with OVCAR-5, > 75 µM (inactive); in the assay on PC-3, 59.6 µM (inactive); in the assay on CCRF-CEM, 33.1 µM (inactive).
Turning to `COC(=O)C12OC(C)(C(CC(=O)OC(C)(C)C)C1=O)C1C(=O)N(c3ccccc3)C(=O)C12` (centres undefined), the GI50 with U-251, in the assay with MDA-MB-435, in the assay on 786-0, in the assay with SNB-75, in the assay on A549 and in the assay on OVCAR-4 was > 100 µM (inactive) each time. The GI50 with COLO 205, with SN12C, in the assay on SF-295, with DU-145, with KM12 and in the assay with SK-MEL-5 was > 100 µM (inactive) each time. Also, the GI50 in the assay with Malme-3M, in the assay on UO-31, in the assay on HOP-92, with OVCAR-5, with PC-3 and in the assay on CCRF-CEM was > 100 µM (inactive) in each case.
Turning to `c1ccc2c(c1)[nH]c1nc3cc(-c4ccc5nc6c(nc5c4)[nH]c4ccccc46)ccc3nc12`, the GI50 with U-251 is 69.3 µM (inactive); with MDA-MB-435 it was > 100 µM (inactive); in the assay with 786-0, > 100 µM (inactive); with SNB-75, > 100 µM (inactive); with A549 it was > 100 µM (inactive); with HL-60 it was 20.9 µM (inactive). The GI50 with OVCAR-4 was > 100 µM (inactive); in the assay with SN12C, > 100 µM (inactive); in the assay with SF-295 it was > 100 µM (inactive); in the assay with DU-145, > 100 µM (inactive); in the assay on KM12, > 100 µM (inactive); with SK-MEL-5, 54.1 µM (inactive). Moreover, the GI50 in the assay with Malme-3M is > 100 µM (inactive); in the assay with UO-31 it was > 100 µM (inactive); with OVCAR-5 it was > 100 µM (inactive); with PC-3 it was > 100 µM (inactive); with CCRF-CEM it was 12.9 µM (inactive).
As for `O=C(CN1CCCC1=O)CS(=O)(=O)c1ccccc1`, the GI50 in the assay with U-251, in the assay on MDA-MB-435, in the assay with 786-0, in the assay on SNB-75, with A549 and with HL-60 was > 100 µM (inactive) each time. For the same compound, the GI50 in the assay with COLO 205, with SF-295, with DU-145, in the assay on KM12, in the assay on SK-MEL-5 and with Malme-3M was > 100 µM (inactive) each time. The GI50 in the assay with UO-31, with OVCAR-5, in the assay on PC-3 and in the assay with CCRF-CEM was > 100 µM (inactive) throughout.
On to `CCOC(=O)CC(=O)NC1CC2CCC1(C)C2(C)C` (centres undefined), for which the GI50 with U-251, with MDA-MB-435, in the assay on 786-0, with SNB-75, in the assay with A549 and with HL-60 was > 100 µM (inactive) in each case. The GI50 in the assay on OVCAR-4, with COLO 205, in the assay with SN12C, with SF-295, with DU-145 and in the assay on KM12 was > 100 µM (inactive) in each case. The GI50 in the assay with SK-MEL-5, with Malme-3M, in the assay with UO-31, in the assay with OVCAR-5, in the assay with PC-3 and with CCRF-CEM was > 100 µM (inactive) in each case.
Regarding `NC(Cc1cc(I)c(Oc2ccc(O)c(I)c2)c(I)c1)C(=O)O` (centres undefined) [RATHYRONINE], the GI50 in the assay with U-251 is 43.4 µM (inactive); in the assay on MDA-MB-435, > 100 µM (inactive); with 786-0, > 100 µM (inactive); in the assay on SNB-75, 54.3 µM (inactive); in the assay on A549 it was > 100 µM (inactive); in the assay with OVCAR-4 it was > 100 µM (inactive). The GI50 in the assay on COLO 205 is > 100 µM (inactive); with SN12C, > 100 µM (inactive); with SF-295, > 100 µM (inactive); with DU-145 it was > 100 µM (inactive); in the assay on KM12, > 100 µM (inactive); in the assay on SK-MEL-5, 37.6 µM (inactive). Moreover, the GI50 with Malme-3M is 36.8 µM (inactive); in the assay with UO-31, > 100 µM (inactive); in the assay on HOP-92, 82.4 µM (inactive); in the assay with OVCAR-5, > 100 µM (inactive); in the assay with PC-3, > 100 µM (inactive).
With `C=C(C(=O)OC)[C@H]1CC/C(C)=C/CC[C@@](C)(O)C=CC[C@@]2(C)O[C@@H]2C1`, the GI50 was 40.4 µM (inactive) with U-251; 17.3 µM (inactive) with MDA-MB-435; 17.6 µM (inactive) in the assay with 786-0; > 100 µM (inactive) with SNB-75; 81.3 µM (inactive) with A549; 64.6 µM (inactive) in the assay with OVCAR-4. The GI50 in the assay on COLO 205 was 13.6 µM (inactive); with SN12C, 47.4 µM (inactive); with SF-295, > 100 µM (inactive); with DU-145, 22.9 µM (inactive); in the assay on KM12 it was 37.6 µM (inactive); with SK-MEL-5, 1.04 µM (active). In addition, the GI50 in the assay with UO-31 is 21.4 µM (inactive); with HOP-92, 19.1 µM (inactive); in the assay on OVCAR-5 it was > 100 µM (inactive); with PC-3, 44.4 µM (inactive).
Consider `O=c1[nH]c2nccnc2c2c([N+](=O)[O-])cccc12`, for which the GI50 in the assay with U-251, in the assay with MDA-MB-435, with 786-0, with SNB-75, in the assay with A549 and in the assay on HL-60 was > 100 µM (inactive) each time. Besides, the GI50 with OVCAR-4, with COLO 205, with SN12C, in the assay with SF-295, with DU-145 and with KM12 was > 100 µM (inactive) each time. For the same compound, the GI50 is 88.3 µM (inactive) with SK-MEL-5; > 100 µM (inactive) in the assay with Malme-3M; 44.1 µM (inactive) in the assay on UO-31; > 100 µM (inactive) in the assay with OVCAR-5; 78.9 µM (inactive) with PC-3; > 100 µM (inactive) with CCRF-CEM.
For `O=C1N[C@@H](COc2ccc(/C=N/c3ccc(CCc4ccc(/N=C/c5ccc(OC[C@@H]6COC(=O)N6)cc5)cc4)cc3)cc2)CO1`, the GI50 in the assay on U-251, with MDA-MB-435, with 786-0, in the assay with A549, with HL-60 and with OVCAR-4 was > 100 µM (inactive) in each case. Further, the GI50 in the assay on COLO 205, in the assay on SN12C, in the assay with SF-295, in the assay with DU-145, with KM12 and with SK-MEL-5 was > 100 µM (inactive) in each case. The GI50 in the assay on Malme-3M, with UO-31, with OVCAR-5 and in the assay on PC-3 was > 100 µM (inactive) throughout.
Consider `C[N+]12C=CC=C1C(N1CCCC1)c1scc(-c3ccc(Br)cc3)c12` (centres undefined), for which the GI50 was 2.09 µM (inactive) in the assay with U-251; 24 µM (inactive) in the assay with MDA-MB-435; 16.7 µM (inactive) with 786-0; 3.1 µM (inactive) in the assay with SNB-75; 74.1 µM (inactive) in the assay on A549; 35.3 µM (inactive) with OVCAR-4. The GI50 in the assay on COLO 205 was 12.5 µM (inactive); in the assay with SN12C, 3.02 µM (inactive); with SF-295, 6.4 µM (inactive); in the assay on DU-145, 33.7 µM (inactive); in the assay on KM12, 12.1 µM (inactive); in the assay with SK-MEL-5, 4.68 µM (inactive). Also, the GI50 was 9.4 µM (inactive) in the assay with Malme-3M; > 100 µM (inactive) in the assay on UO-31; 12 µM (inactive) in the assay with HOP-92; 42.1 µM (inactive) in the assay on OVCAR-5; 21 µM (inactive) with PC-3; 18.2 µM (inactive) in the assay with CCRF-CEM.
On to `COC(=O)c1cn(CCCCO)nn1`, for which the GI50 in the assay on U-251, in the assay on MDA-MB-435, in the assay on 786-0, in the assay on SNB-75, in the assay on A549 and with OVCAR-4 was > 100 µM (inactive) in each case. Moreover, the GI50 in the assay with COLO 205, with SN12C, in the assay with SF-295, in the assay on DU-145, in the assay on KM12 and in the assay with SK-MEL-5 was > 100 µM (inactive) throughout. For the same compound, the GI50 in the assay on Malme-3M, in the assay on UO-31, in the assay on HOP-92, with PC-3 and in the assay with CCRF-CEM was > 100 µM (inactive) throughout.

The values above are taken from ChEMBL document CHEMBL1201862, “PubChem BioAssay data set” (2004).
